Experimental findings from ChEMBL document CHEMBL4152280, “Binding mechanism investigations guiding the synthesis of novel condensed 1,4-dihydropyridine derivatives with L-/T-type calcium channel blocking activity” (Eur J Med Chem, 2018) are described below.

Calls of active or inactive are those of the source. No cut-off for these calls is given here. Where only a bound is given, the exact number is not on record here.

Chain of Cav1.2 (voltage-dependent L-type calcium channel subunit alpha-1C) (P22002 whole entry): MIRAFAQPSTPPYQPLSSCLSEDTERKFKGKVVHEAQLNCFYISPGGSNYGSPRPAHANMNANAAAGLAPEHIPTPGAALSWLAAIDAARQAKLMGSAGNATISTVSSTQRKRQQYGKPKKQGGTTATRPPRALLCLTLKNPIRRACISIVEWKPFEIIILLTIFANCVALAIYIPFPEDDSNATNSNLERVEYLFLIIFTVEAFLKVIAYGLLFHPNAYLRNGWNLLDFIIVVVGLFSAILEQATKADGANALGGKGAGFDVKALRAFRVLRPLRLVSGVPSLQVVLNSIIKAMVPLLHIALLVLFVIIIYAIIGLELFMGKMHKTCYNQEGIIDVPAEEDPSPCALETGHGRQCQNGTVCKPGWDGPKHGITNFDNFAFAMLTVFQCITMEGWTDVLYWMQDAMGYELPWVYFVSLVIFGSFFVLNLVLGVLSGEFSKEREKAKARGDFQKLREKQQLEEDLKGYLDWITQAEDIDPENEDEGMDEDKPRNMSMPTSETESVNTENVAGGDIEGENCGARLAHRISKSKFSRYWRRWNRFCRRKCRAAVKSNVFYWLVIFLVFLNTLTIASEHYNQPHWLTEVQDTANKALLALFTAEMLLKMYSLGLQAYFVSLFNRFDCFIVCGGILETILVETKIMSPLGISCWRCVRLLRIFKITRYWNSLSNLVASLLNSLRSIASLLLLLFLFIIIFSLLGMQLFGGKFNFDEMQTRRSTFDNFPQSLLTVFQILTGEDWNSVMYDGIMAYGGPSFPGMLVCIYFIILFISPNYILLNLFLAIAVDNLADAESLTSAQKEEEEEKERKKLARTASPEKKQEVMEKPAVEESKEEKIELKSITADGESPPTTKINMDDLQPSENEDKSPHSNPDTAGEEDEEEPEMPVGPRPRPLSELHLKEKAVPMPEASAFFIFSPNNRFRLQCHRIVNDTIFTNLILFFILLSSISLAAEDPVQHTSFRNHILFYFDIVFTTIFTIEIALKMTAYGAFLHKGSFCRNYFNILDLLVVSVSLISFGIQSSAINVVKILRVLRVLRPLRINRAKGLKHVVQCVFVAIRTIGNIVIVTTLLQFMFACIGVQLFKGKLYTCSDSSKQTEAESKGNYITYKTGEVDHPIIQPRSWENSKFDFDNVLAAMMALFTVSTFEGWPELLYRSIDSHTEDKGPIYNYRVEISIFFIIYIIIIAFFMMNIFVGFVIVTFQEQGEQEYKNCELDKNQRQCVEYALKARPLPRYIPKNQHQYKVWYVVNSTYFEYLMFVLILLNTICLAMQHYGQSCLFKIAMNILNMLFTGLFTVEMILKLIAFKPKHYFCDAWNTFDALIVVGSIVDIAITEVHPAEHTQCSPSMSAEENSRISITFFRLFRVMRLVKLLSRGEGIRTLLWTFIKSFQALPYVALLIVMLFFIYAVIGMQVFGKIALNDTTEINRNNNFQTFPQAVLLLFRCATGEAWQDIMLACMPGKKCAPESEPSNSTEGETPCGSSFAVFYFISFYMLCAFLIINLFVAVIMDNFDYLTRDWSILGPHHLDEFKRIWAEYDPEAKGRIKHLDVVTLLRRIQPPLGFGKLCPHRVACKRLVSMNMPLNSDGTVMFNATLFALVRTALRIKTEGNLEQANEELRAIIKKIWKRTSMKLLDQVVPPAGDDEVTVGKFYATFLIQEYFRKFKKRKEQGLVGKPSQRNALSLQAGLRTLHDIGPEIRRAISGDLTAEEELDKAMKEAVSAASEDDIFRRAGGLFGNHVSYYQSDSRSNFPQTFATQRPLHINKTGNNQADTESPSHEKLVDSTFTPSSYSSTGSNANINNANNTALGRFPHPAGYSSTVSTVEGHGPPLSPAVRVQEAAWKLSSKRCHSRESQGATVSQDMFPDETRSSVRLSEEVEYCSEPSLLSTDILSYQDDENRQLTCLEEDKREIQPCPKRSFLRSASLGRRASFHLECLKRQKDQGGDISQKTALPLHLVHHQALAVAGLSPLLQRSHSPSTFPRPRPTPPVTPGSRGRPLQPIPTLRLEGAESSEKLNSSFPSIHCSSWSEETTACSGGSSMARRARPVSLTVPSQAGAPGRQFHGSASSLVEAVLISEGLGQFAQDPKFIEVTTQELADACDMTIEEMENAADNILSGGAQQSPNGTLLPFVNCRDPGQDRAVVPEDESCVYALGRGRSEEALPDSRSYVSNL

For one data set, the target named is Voltage-dependent T-type calcium channel subunit alpha-1H (Homo sapiens) (UniProt O95180). The data set is described as follows: Inhibition of human Cav3.2 at 10 uM at -110 mV holding potential by patch clamp electrophysiology assay. In general terms: In patch-clamp work, channel activity is measured electrically.
Chain of Voltage-dependent T-type calcium channel subunit alpha-1H (Homo sapiens) (O95180 whole entry): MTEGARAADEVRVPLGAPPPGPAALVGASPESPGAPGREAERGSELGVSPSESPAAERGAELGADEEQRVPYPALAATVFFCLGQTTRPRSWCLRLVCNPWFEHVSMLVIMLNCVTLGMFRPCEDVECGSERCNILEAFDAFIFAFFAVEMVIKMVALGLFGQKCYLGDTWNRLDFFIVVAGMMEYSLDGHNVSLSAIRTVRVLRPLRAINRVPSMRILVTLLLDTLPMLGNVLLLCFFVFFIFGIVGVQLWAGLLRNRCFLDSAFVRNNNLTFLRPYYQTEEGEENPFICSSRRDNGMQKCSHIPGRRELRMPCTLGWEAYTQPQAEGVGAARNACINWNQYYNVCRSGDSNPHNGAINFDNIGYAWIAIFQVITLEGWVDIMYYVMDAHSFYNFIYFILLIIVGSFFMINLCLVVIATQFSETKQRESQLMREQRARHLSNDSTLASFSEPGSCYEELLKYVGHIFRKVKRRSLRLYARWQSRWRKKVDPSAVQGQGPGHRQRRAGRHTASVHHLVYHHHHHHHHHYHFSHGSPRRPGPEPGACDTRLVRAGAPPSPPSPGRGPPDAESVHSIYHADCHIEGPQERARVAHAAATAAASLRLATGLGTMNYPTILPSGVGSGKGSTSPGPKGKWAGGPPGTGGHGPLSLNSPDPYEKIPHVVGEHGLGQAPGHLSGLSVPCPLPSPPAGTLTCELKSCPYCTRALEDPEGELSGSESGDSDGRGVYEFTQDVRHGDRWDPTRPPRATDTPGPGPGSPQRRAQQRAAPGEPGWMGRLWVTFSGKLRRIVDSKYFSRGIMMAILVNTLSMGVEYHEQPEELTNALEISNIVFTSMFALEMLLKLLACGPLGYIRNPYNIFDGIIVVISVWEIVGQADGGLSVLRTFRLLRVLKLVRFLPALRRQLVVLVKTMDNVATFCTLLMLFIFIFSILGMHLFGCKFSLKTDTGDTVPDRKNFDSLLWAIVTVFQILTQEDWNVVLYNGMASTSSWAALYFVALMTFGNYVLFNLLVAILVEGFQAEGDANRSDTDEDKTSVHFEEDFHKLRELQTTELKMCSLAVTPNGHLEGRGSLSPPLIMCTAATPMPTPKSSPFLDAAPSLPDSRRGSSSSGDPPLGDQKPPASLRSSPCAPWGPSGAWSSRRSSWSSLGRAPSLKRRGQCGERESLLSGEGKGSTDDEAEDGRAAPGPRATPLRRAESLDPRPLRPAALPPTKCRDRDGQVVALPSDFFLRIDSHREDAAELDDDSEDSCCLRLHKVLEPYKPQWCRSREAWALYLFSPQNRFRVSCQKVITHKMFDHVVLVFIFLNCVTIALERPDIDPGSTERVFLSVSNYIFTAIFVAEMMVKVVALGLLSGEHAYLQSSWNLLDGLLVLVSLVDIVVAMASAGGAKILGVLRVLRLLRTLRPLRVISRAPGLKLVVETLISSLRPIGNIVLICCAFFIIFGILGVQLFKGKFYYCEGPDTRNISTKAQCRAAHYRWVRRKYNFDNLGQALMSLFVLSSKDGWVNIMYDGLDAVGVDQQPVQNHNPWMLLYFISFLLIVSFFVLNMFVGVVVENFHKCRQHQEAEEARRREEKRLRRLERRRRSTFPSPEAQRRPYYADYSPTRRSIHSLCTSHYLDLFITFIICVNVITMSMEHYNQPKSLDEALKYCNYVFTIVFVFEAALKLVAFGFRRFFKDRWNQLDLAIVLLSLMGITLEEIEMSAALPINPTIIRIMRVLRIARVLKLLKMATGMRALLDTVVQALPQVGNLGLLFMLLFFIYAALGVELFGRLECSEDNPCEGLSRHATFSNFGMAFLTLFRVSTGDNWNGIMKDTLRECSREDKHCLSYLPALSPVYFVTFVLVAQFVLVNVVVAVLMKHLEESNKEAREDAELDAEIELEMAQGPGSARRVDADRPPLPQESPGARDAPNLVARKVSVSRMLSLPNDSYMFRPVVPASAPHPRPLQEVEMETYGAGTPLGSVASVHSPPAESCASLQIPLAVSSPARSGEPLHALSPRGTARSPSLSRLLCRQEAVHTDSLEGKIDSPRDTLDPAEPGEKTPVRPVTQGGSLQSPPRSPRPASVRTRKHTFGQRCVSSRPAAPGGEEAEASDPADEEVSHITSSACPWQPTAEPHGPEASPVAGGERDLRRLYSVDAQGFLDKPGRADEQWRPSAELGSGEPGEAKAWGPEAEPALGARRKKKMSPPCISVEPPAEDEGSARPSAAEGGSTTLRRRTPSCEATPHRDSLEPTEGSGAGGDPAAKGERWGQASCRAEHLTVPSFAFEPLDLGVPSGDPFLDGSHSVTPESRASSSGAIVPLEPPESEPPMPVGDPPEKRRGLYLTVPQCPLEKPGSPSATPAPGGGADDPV
The inhibition is how much of the control response was suppressed. With `CCOC(=O)C1=C(C)NC2=C(C(=O)C(C)(C)CC2)C1c1cc(Br)cc([N+](=O)[O-])c1O` (centres undefined), the inhibition entry is “Active”.

Consider `CC1=C(C(=O)OCC(C)C)C(c2ccc(O)c(C(F)(F)F)c2)C2=C(CCC(C)(C)C2=O)N1` (centres undefined), for which the inhibition result is “Active”.

Turning to `CCOC(=O)C1=C(C)NC2=C(C(=O)C(C)(C)CC2)C1c1ccc(O)c(C(F)(F)F)c1` (centres undefined), the inhibition result is “Active”.

For the molecule `CC1=C(C(=O)OCC(C)C)C(c2cc([N+](=O)[O-])cc([N+](=O)[O-])c2O)C2=C(CCC(C)(C)C2=O)N1` (centres undefined), the inhibition result was “Active”.

A further data set concerns the target Cav1.2 (voltage-dependent L-type calcium channel subunit alpha-1C) (Rattus norvegicus, UniProt P22002). In words: Inhibition of rat Cav1.2 at 10 uM at -90 mV holding potential by patch clamp electrophysiology assay relative to control.
For the molecule `CC1=C(C(=O)OCC(C)C)C(c2cc([N+](=O)[O-])cc(Br)c2O)C2=C(CCC(C)(C)C2=O)N1` (centres undefined), the inhibition at 10 µM came to 15%.

In the case of `CCOC(=O)C1=C(C)NC2=C(C(=O)C(C)(C)CC2)C1c1cc(Br)cc([N+](=O)[O-])c1O` (centres undefined), the inhibition at 10 µM was 50%.

As to `CC1=C(C(=O)OCC(C)C)C(c2cc([N+](=O)[O-])cc(Br)c2O)C2=C(CC(C)(C)CC2=O)N1` (centres undefined), the inhibition at 10 µM was found to be 70%.

For `CC1=C(C(=O)OCc2ccccc2)C(c2cc([N+](=O)[O-])ccc2O)C2=C(CCC(C)(C)C2=O)N1` (centres undefined), the inhibition at 10 µM was found to be 70%.

Take `CC1=C(C(=O)OC(C)(C)C)C(c2cc([N+](=O)[O-])ccc2O)C2=C(CCC(C)(C)C2=O)N1` (centres undefined): the inhibition at 10 µM is < 30%.

For `CC1=C(C(=O)OCC(C)C)C(c2cc(Br)cc([N+](=O)[O-])c2O)C2=C(CCC(C)(C)C2=O)N1` (centres undefined), the inhibition at 10 µM stood at 10%.

For the molecule `CC1=C(C(=O)OCC(C)C)C(c2cc([N+](=O)[O-])ccc2O)C2=C(CC(C)(C)CC2=O)N1` (centres undefined), the inhibition at 10 µM is 30%.

As to `CC1=C(C(=O)OCC(C)C)C(c2cc([N+](=O)[O-])ccc2O)C2=C(CCC(C)(C)C2=O)N1` (centres undefined), the inhibition at 10 µM was found to be 70%.

Regarding `CCOC(=O)C1=C(C)NC2=C(C(=O)C(C)(C)CC2)C1c1cc([N+](=O)[O-])ccc1O` (centres undefined), the inhibition at 10 µM amounted to 70%.

For the molecule `COC(=O)C1=C(C)NC2=C(C(=O)C(C)(C)CC2)C1c1cc([N+](=O)[O-])ccc1O` (centres undefined), the inhibition at 10 µM was < 30%.
